Reference: patent US20100160369A1, “S1P1 Agonists and Methods of Making And Using” (EXELIXIS, INC., priority 2008, published 2010)
Counter-ions that a name gives are not always drawn. Like-named read-outs stand apart in the source and are kept apart here.

Molecular target: S1P1 (Homo sapiens, UniProt P21453)
Assay: Tango β-arrestin Recruitment Assay in U2OS cells (Assay 2b)
Assay type: cell-based
Design: linker with TEV protease (N1a) cleavage site (C)
Conditions: Tango β-arrestin Recruitment Assay
Source text: For the Tango™ β-arrestin recruitment assay, the cytoplasmic C-terminus of S1P1 is tethered to the tTA transcriptional activator with a linker that contains a cleavage site for the N1a protease from tobacco etch virus (TEV protease). The C-terminus of the human β-arrestin2 protein is fused to TEV protease. Binding of an agonist recruits the β-arrestin-TEV fusion protein to the receptor resulting in cleavage of the linker and release of tTA to enter the nucleus and subsequently activate a tTA-dependent luciferase reporter gene.
Alternatively, U2OS cells expressing the reporter gene and S1P1 (Invitrogen) were added to the wells of a 384-well white opaque bottom assay plate (PerkinElmer) at […] per well. The cells were serum starved for 48 h in Freestyle medium (Invitrogen). Test compounds were tested at maximum concentrations of 1 μM for the agonist assay. Compounds were diluted in DMSO (10 concentration points, 3-fold each) and added to the assay plate at a 1% final DMSO concentration. The efficacy control was 1 μM S1P (Avanti). For each compound, there were duplicate assay plates and each assay plate had duplicate wells per concentration point. The plate was incubated overnight at 37° C. The GeneBLAzer β-lactamase assay reagent (Invitrogen) was added and the plates were incubated for an additional 2 h at room temperature. Fluorescence was measured using an EnVision plate reader (PerkinElmer, Waltham, Mass.) at an excitation wavelength of 409 nm and emission wavelengths of 460 nm and 530 nm. The emission intensity at each wavelength was background subtracted against wells containing medium only and the F460 nm/F530 nm ratio determined for each concentration of the test compounds. Percent activity was calculated as [(test compound ratio−DMSO ratio)/(positive control ratio−DMSO ratio)*100], where the positive control and DMSO ratios are from cells incubated with the efficacy control 1 μM S1P and 1% DMSO, respectively. The percent activities were plotted against compound concentration to determine EC50 using XLFit (IDBS).
Assay 1 is the CNG cAMP Assay as described in Biological Example 1. Assay 2a and 2b are the Tango™ β-arrestin Recruitment Assay in HEK293 and U2OS cells, respectively, as described in Biological Example 2. Assay 3a is the hS1P1R GTPγS Binding Assay as described in Biological Example 3. Assay 3b is the GTP-Eu Binding Assay as described in Biological Example 3. EC50's were measured unless otherwise noted. […] In the table, “nt” means the Compound was not tested and “no” means the compound was tested but had no measurable activity under the assay conditions employed.

Sequence of S1P1 (P21453 whole entry): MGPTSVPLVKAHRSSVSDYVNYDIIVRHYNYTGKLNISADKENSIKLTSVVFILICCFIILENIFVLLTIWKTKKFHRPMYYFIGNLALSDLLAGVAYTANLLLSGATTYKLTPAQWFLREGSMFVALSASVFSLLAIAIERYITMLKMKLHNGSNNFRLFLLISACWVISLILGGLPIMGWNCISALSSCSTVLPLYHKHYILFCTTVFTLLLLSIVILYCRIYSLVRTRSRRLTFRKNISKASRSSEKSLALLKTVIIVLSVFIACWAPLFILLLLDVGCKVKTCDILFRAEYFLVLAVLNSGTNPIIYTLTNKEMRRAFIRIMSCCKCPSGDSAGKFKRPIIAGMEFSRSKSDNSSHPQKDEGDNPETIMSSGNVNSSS
Sequence of S1P1 (P32121 whole entry partner): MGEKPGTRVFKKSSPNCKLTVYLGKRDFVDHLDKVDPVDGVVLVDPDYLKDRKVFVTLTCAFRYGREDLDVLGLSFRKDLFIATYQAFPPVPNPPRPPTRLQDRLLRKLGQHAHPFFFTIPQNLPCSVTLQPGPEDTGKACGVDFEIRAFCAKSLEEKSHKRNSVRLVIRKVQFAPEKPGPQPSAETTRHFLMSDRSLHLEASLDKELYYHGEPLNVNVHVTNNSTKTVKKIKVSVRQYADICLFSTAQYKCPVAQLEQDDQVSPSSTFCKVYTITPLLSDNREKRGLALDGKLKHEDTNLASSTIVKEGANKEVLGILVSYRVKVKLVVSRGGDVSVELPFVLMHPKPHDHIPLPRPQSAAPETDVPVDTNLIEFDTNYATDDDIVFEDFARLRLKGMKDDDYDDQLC

EC50 (read-out: Assay 2b EC50) [nM]	EC50 (footnote 1: Relative EC50 was measured, read-out: Assay 2b relative EC50) [nM]	SMILES
≤ 100		C[C@H](COc1cc(Cl)c(-c2noc(-c3cn4cc(C(F)(F)F)cc(Cl)c4n3)n2)cc1Cl)OS(=O)(=O)O [Example 331, (1R)-2-[(2,5-dichloro-4-{5-[8-chloro-6-(trifluoromethyl)imidazo[1,2-a]pyridin-2-yl]-1,2,4-oxadiazol-3-yl}phenyl)oxy]-1-methylethyl hydrogen sulfate]
≤ 100		N[C@@H](CO)COc1cc(Cl)c(-c2nnc(-c3cn4cc(C(F)(F)F)cc(Cl)c4n3)s2)cc1F [Example 335, (2S)-2-Amino-3-[(5-chloro-4-{5-[8-chloro-6-(trifluoromethyl)imidazo[1,2-a]pyridin-2-yl]-1,3,4-thiadiazol-2-yl}-2-fluorophenyl)oxy]propan-1-ol]
	100 to 500	COC(=O)C(C)(O)COc1cc(Cl)c(-c2noc(-c3cn4cc(C(F)(F)F)cc(Cl)c4n3)n2)cc1Cl (stereo not shown) [Example 319, methyl 3-[(2,5-dichloro-4-{5-[8-chloro-6-(trifluoromethyl)imidazo[1,2-a]pyridin-2-yl]-1,2,4-oxadiazol-3-yl}phenyl)oxy]-2-hydroxy-2-methylpropanoate]
≤ 100		O=C(COc1cc(Cl)c(-c2noc(-c3cn4cc(C(F)(F)F)cc(Cl)c4n3)n2)cc1Cl)C(F)(F)F [Entry 18]
≤ 100		O=C(O)CCc1c(F)cc(-c2noc(-c3cn4cc(C(F)(F)F)cc(Cl)c4n3)n2)cc1Cl [Example 296, 3-(2-chloro-4-{5-[8-chloro-6-(trifluoromethyl)imidazo[1,2-a]pyridin-2-yl]-1,2,4-oxadiazol-3-yl}-6-fluorophenyl)propanoic acid]
≤ 100		CS(=O)(=O)COc1cc(Cl)c(-c2noc(-c3cn4cc(C(F)(F)F)cc(Cl)c4n3)n2)cc1Cl [Entry 12]
≤ 100		CC(O)COc1cc(Cl)c(-c2nc(-c3cn4cc(C(F)(F)F)cc(Cl)c4n3)no2)cc1F (stereo not shown) [Example 184, 1-[(5-chloro-4-{3-[8-chloro-6-(trifluoromethyl)imidazo[1,2-a]pyridin-2-yl]-1,2,4-oxadiazol-5-yl}-2-fluorophenyl)oxy]propan-2-ol]
≤ 100		Cc1cc(CCC(=O)O)c(Cl)cc1-c1nc(-c2cn3cc(I)cc(Cl)c3n2)no1 [Example 297, 3-{2-chloro-4-[3-(8-chloro-6-iodoimidazo[1,2-a]pyridin-2-yl)-1,2,4-oxadiazol-5-yl]-5-methylphenyl}propanoic acid]
≤ 100		O=P(O)(O)OC(CO)COc1cc(Cl)c(-c2noc(-c3cn4cc(C(F)(F)F)cc(Cl)c4n3)n2)cc1Cl (stereo not shown) [Entry 9]
≤ 100		NC(CO)COc1cc(Cl)c(-c2nc(-c3cn4cc(C(F)(F)F)cc(Cl)c4n3)no2)cc1Cl (stereo not shown) [Example 80, 2-amino-3-[(2,5-dichloro-4-{3-[8-chloro-6-(trifluoromethyl)imidazo[1,2-a]pyridin-2-yl]-1,2,4-oxadiazol-5-yl}phenyl)oxy]propan-1-ol]
≤ 100		NC(CO)COc1cc(Cl)c(-c2nnc(-c3cn4cc(I)ccc4n3)s2)cc1F (stereo not shown) [Example 102, 2-amino-3-({5-chloro-2-fluoro-4-[5-(6-iodoimidazo[1,2-a]pyridin-2-yl)-1,3,4-thiadiazol-2-yl]phenyl}oxy)propan-1-ol]
≤ 100		O=C(O)C1CC1c1cc(Cl)c(-c2nnc(-c3cn4cc(C(F)(F)F)cc(Cl)c4n3)s2)cc1Cl (stereo not shown) [Example 320, 2-(2,5-dichloro-4-{5-[8-chloro-6-(trifluoromethyl)imidazo[1,2-a]pyridin-2-yl]-1,3,4-thiadiazol-2-yl}phenyl)cyclopropanecarboxylic acid]
≤ 100		CC(O)COc1cc(Cl)c(-c2noc(-c3cn4cc(C(F)(F)F)cc(Br)c4n3)n2)cc1Cl (stereo not shown) [Example 316, 1-[(4-{5-[8-bromo-6-(trifluoromethyl)imidazo[1,2-a]pyridin-2-yl]-1,2,4-oxadiazol-3-yl}-2,5-dichlorophenyl)oxy]propan-2-ol]
100 to 500		CC(O)COc1cc(Cl)c(-c2nnc(-c3cn4cc(C(F)(F)F)cc(Cl)c4n3)o2)cc1F (stereo not shown) [Example 179, 1-[(5-chloro-4-{5-[8-chloro-6-(trifluoromethyl)imidazo[1,2-a]pyridin-2-yl]-1,3,4-oxadiazol-2-yl}-2-fluorophenyl)oxy]propan-2-ol]
≤ 100		OCC(F)(F)COc1cc(Cl)c(-c2noc(-c3cn4cc(C(F)(F)F)cc(Cl)c4n3)n2)cc1Cl [Example 311, 3-[(2,5-dichloro-4-{5-[8-chloro-6-(trifluoromethyl)imidazo[1,2-a]pyridin-2-yl]-1,2,4-oxadiazol-3-yl}phenyl)oxy]-2,2-difluoropropan-1-ol]
≤ 100		NC(CO)(CO)CCc1cc(Cl)c(-c2noc(-c3cn4cc(C(F)(F)F)cc(Cl)c4n3)n2)cc1F [Example 154, 2-amino-2-[2-(5-chloro-4-{5-[8-chloro-6-(trifluoromethyl)imidazo[1,2-a]pyridin-2-yl]-1,2,4-oxadiazol-3-yl}-2-fluorophenyl)ethyl]propane-1,3-diol]
≤ 100		CC(N)(CO)COc1cc(Cl)c(-c2nnc(-c3cn4cc(C(F)(F)F)cc(Cl)c4n3)s2)cc1F (stereo not shown) [Entry 46]
≤ 100		NC(COc1cc(Cl)c(-c2nnc(-c3cn4cc(C(F)(F)F)cc(Cl)c4n3)s2)cc1F)COP(=O)(O)O (stereo not shown) [Example 82, 2-amino-3-[(5-chloro-4-{5-[8-chloro-6-(trifluoromethyl)imidazo[1,2-a]pyridin-2-yl]-1,3,4-thiadiazol-2-yl}-2-fluorophenyl)oxy]propyl dihydrogen phosphate]
≤ 100		O=C(O)CC(=O)COc1cc(Cl)c(-c2noc(-c3cn4cc(C(F)(F)F)cc(Cl)c4n3)n2)cc1Cl [Entry 5]
≤ 100		O=C(O)C1CC1c1cc(Cl)c(-c2noc(-c3cn4cc(C(F)(F)F)cc(Br)c4n3)n2)cc1Cl (stereo not shown) [Example 306, 2-(4-{5-[8-bromo-6-(trifluoromethyl)imidazo[1,2-a]pyridin-2-yl]-1,2,4-oxadiazol-3-yl}-2,5-dichlorophenyl)cyclopropanecarboxylic acid]
≤ 100		CC(O)(COc1cc(Cl)c(-c2noc(-c3cn4cc(C(F)(F)F)cc(Cl)c4n3)n2)cc1Cl)C(=O)O (stereo not shown) [Example 327, 3-[(2,5-dichloro-4-{5-[8-chloro-6-(trifluoromethyl)imidazo[1,2-a]pyridin-2-yl]-1,2,4-oxadiazol-3-yl}phenyl)oxy]-2-hydroxy-2-methylpropanoic acid]
100 to 500		Nc1cc(Cl)c(-c2noc(-c3cn4cc(C(F)(F)F)cc(Cl)c4n3)n2)cc1Cl [Example 337, 2,5-dichloro-4-{5-[8-chloro-6-(trifluoromethyl)imidazo[1,2-a]pyridin-2-yl]-1,2,4-oxadiazol-3-yl}aniline]
≤ 100		O=C(COc1cc(Cl)c(-c2noc(-c3cn4cc(C(F)(F)F)cc(Cl)c4n3)n2)cc1Cl)COP(=O)(O)O [Entry 51]
≤ 100		CC(N)(CO)COc1cc(Cl)c(-c2nnc(-c3cn4cc(C(F)(F)F)ccc4n3)s2)cc1F (stereo not shown) [Entry 44]
≤ 100		C[C@@H](CO)Oc1cc(Cl)c(-c2noc(-c3cn4cc(C(F)(F)F)cc(Cl)c4n3)n2)cc1Cl [Example 156, (2S)-2-[(2,5-dichloro-4-{5-[8-chloro-6-(trifluoromethyl)imidazo[1,2-a]pyridin-2-yl]-1,2,4-oxadiazol-3-yl}phenyl)oxy]propan-1-ol]
